In patent publication US9730445B2, “Herbicidal compositions comprising 4-amino-3-chloro-5-fluoro-6-(4-chloro-2-fluoro-3-methoxyphenyl) pyridine-2-carboxylic acid or a derivative thereof and fungicides” (DOW AGROSCIENCES LLC, priority 2013, dated 2017):

How the values were obtained:
LEFCH = assay: Postemergence foliar-applied weed control, direct-seeded rice (greenhouse); assay type: in vivo, Leptochloa chinensis (L.) Nees (Chinese sprangletop)
Procedure: (§1) Seeds or nutlets of the desired test plant species were planted in a soil matrix prepared by mixing aloam or sandy loam soil (e.g., 28.6 percent silt, 18.8 percent clay, and 52.6 percent sand, with a pH of about 5.8 and an organic matter content of about 1.8 percent) and calcareous grit in an 80 to 20 ratio. The soil matrix was contained in plastic pots with a volume of 1 quart and a surface area of 83.6 square centimeters (cm^2). […] The plants were grown for 8-22 days in a greenhouse with an approximate 14 hour (h) photoperiod which was maintained at about 29° C. during the day and 26° C. during the night. Nutrients (Peters Excel® 15-5-15 5-Ca 2-Mg and iron chelate) were applied in the irrigation solution as needed and water was added on a regular basis. Supplemental lighting was provided with overhead metal halide 1000-Watt lamps as necessary. The plants were employed for testing when they reached the first through fourth true leaf stage.
(§2) Treatments consisted of the acid or esters of 4-amino-3-chloro-5-fluoro-6-(4-chloro-2-fluoro-3-methoxy-phenyl)pyridine-2-carboxylic acid (Compound A), each formulated as an SC (suspension concentrate), and various fungicidal components alone and in combination. Forms of compound A were applied on an acid equivalent basis.
(§3) For treatments comprised of formulated compounds, measured amounts of compounds were placed individually in 25 mL glass vials and diluted in a volume of 1.25% volume per volume (v/v) Agri-Dex® crop oil concentrate to obtain 12× stock solutions. […] Application solutions were prepared by adding an appropriate amount of each stock solution (e.g., 1 mL) and diluted to the appropriate final concentrations with the addition of […] of an aqueous mixture of 1.25% (v/v) crop oil concentrate so that the final spray solutions contained 1.25+/−0.05% (v/v) crop oil concentrate.
(§4) For treatments comprised of technical compounds, weighed amounts can be placed individually in 25 mL glass vials and dissolved in a volume of 97:3 volume per volume (v/v) acetone/dimethyl sulfoxide (DMSO) to obtain 12× stock solutions. […] When technical materials are used, the concentrated stock solutions can be added to the spray solutions so that the final acetone and DMSO concentrations of the application solutions are 16.2% and 0.5%, respectively.
(§5) As required, additional water and/or 97:3 v/v acetone/DMSO was added to individual application solutions so that the final acetone and DMSO concentrations of the application solutions being compared were 8.1% and 0.25%, respectively
(§6) All stock solutions and applications solutions were visually inspected for compound compatibility prior to application. Spray solutions were applied to the plant material with an overhead Mandel track sprayer equipped with 8002E nozzles calibrated to deliver 187 L/ha over an application area of 0.503 square meters (m^2) at a spray height of 18 to 20 inches (46 to 50 cm) above average plant canopy height. Control plants were sprayed in the same manner with the solvent blank.
(§7) The treated plants and control plants were placed in a greenhouse as described above and watered by sub-irrigation to prevent wash-off of the test compounds. After approximately 3 weeks, the condition of the test plants as compared with that of the untreated plants was determined visually and scored on a scale of 0 to 100 percent where 0 corresponds to no injury or growth inhibition and 100 corresponds to complete kill.
(§8) Colby's equation was used to determine the herbicidal effects expected from the mixtures (Colby, S. R. Calculation of the synergistic and antagonistic response of herbicide combinations. Weeds 1967, 15, 20-22.).
(§9) The following equation was used to calculate the expected activity of mixtures containing two active ingredients, A and B: Expected=A+B−(A×B/100)

IPOHE = assay: as above; assay type: in vivo, Ipomoea hederacea (L.) Jacq. (ivyleaf morningglory)
Procedure: as §1, §2, §3, §4, §5, §6, §7, §8, §9

CYPRO = assay: In-water applied weed control, transplanted paddy rice (greenhouse); assay type: in vivo, Cyperus rotundus L. (purple nutsedge); conditions: 22 DAA
Procedure: Weed seeds or nutlets of the desired test plant species were planted in puddled soil (mud) prepared by mixing a shredded, non-sterilized mineral soil (50.5 percent silt, 25.5 percent clay, and 24 percent sand, with a pH of about 7.6 and an organic matter content of about 2.9 percent) and water at a 1:1 volumetric ratio. The prepared mud was dispensed in 365 mL aliquots into 16-ounce (oz.) non-perforated plastic pots with a surface area of 86.59 square centimeters (cm^2) leaving a headspace of 3 centimeters (cm) in each pot. Rice seeds were planted in Sun Gro MetroMix® 306 planting mixture, which typically has a pH of 6.0 to 6.8 and an organic matter content of about 30 percent, in plastic plug trays. Seedlings at the second or third leaf stage of growth were transplanted into 860 mL of mud contained in 32-oz. non-perforated plastic pots with a surface area of 86.59 cm^2 4 days prior to herbicide application. The paddy was created by filling the headspace of the pots with 2.5 to 3 cm of water. When required to ensure good germination and healthy plants, a fungicide treatment and/or other chemical or physical treatment was applied. The plants were grown for 4-22 days in a greenhouse with an approximate 14 hour (h) photoperiod which was maintained at about 29° C. during the day and about 26° C. during the night. Nutrients were added as Osmocote® (17:6:10, N:P:K+minor nutrients) at 2 g per cup. Water was added on a regular basis to maintain the paddy flood, and supplemental lighting was provided with overhead metal halide 1000-Watt lamps as necessary. The plants were employed for testing when they reached the first through fourth true leaf stage.
as §2, with “(compound A)” for “(Compound A),”, “concentrate)” for “concentrate),”
Treatment requirements for each compound or fungicidal component were calculated based upon the rates being tested, the concentration of active ingredient or acid equivalent in the formulation, an application volume of 2 mL per component per pot, and an application area of 86.59 cm^2 per pot.
For formulated compounds, a measured amount was placed in an individual 100 or 200 mL glass vial and was dissolved in a volume of 1.25% (v/v) Agri-Dex® crop oil concentrate to obtain application solutions.
For technical grade compounds, a weighed amount was placed in an individual 100 to 200 mL glass vial and dissolved in a volume of acetone to obtain concentrated stock solutions.
Applications were made by injecting with a pipetter appropriate amounts of the application solutions, individually and sequentially, into the aqueous layer of the paddy. Control plants were treated in the same manner with the solvent blank. Applications were made so that all treated plant material received the same concentrations of acetone and crop oil concentrate.
as §7, with “water was added as needed” for “watered by sub-irrigation”, “maintain a paddy flood.” for “prevent wash-off of the test compounds.”, “weeks” for “weeks,”
as §8, §9

DIGSA = assay: Postemergence foliar-applied weed control, direct-seeded rice (greenhouse); assay type: in vivo, Digitaria sanguinalis (L.) Scop. (large crabgrass); conditions: 21 DAA
Text: (§10) Seeds or nutlets of the desired test plant species were planted in a soil matrix prepared by mixing aloam or sandy loam soil (e.g., 28.6 percent silt, 18.8 percent clay, and 52.6 percent sand, with a pH of about 5.8 and an organic matter content of about 1.8 percent) and calcareous grit in an 80 to 20 ratio. The soil matrix was contained in plastic pots with a volume of 1 quart and a surface area of 83.6 square centimeters (cm^2). When required to ensure good germination and healthy plants, a fungicide treatment and/or other chemical or physical treatment was applied. The plants were grown for 8-22 days in a greenhouse with an approximate 14 hour (h) photoperiod which was maintained at about 29° C. during the day and 26° C. during the night. Nutrients (Peters Excel® 15-5-15 5-Ca 2-Mg and iron chelate) were applied in the irrigation solution as needed and water was added on a regular basis. Supplemental lighting was provided with overhead metal halide 1000-Watt lamps as necessary. The plants were employed for testing when they reached the first through fourth true leaf stage.
as §2
(§11) Treatment requirements were calculated based upon the rates being tested, the concentration of active ingredient or acid equivalent in the formulation and a 12 milliliter (mL) application volume at a rate of 187 liters per hectare (L/ha).
as §3, §4, §5, §6
as §7, with “kill. […]” for “kill.”

ECHCO = assay: as above; assay type: in vivo, Echinochloa colonum (L.) LINK (junglerice); conditions: 19 DAA, r9-11 ester 8/16/32 g ae/ha alone
Text: as §10, §2, §11, §3, §4, §5, §6
as §7, with “kill. […]” for “kill.”

BRAPP = assay: as above; assay type: in vivo; conditions: 22 DAA, r38-40 ester 8/16/32 g ae/ha alone, r41-42 azoxystrobin 125/250 g ai/ha alone, r43-48 ester 8/16/32 at each of 125, 250
Text: as §10, §2, §11, §3, §4, §5, §6
as §7, with “kill. […]” for “kill.”

CYPIR = assay: as above; assay type: in vivo, Cyperus iria L. (rice flatsedge); conditions: 22 DAA, r22-23 ester 16/32 g ae/ha alone, r24-26 azoxystrobin 62.5/125/250 g ai/ha alone, r27-32 ester 16/32 at each of 62.5, 125, 250
Procedure: as §1, §2, §3, §4, §5, §6, §7, §8, §9

ECHCG = assay: as above; assay type: in vivo, Echinochloa crus-galli (L.) P. Beauv. (barnyardgrass); conditions: r10-11 ester 8/16 g ae/ha alone, r12-14 phthalide 100/200/300 g ai/ha alone, r15-20 ester 8/16 at each of 100, 200, 300
Procedure: as §1, §2, §3, §4, §5, §6, §7, §8, §9

[1] = r9-11 acid 5.3/10.6/21.2 g ae/ha alone, r12 myclobutanil 250 g ai/ha alone, r13-15 acid 5.3/10.6/21.2 + 250
[2] = r9-11 acid 5.3/10.6/21.2 g ae/ha alone, r12 azoxystrobin 250 g ai/ha alone, r13-15 acid 5.3/10.6/21.2 + 250
[3] = r10-12 ester 4.38/8.75/17.5 g ae/ha alone, r13 azoxystrobin 250 g ai/ha alone, r14-16 ester 4.38/8.75/17.5 + 250

## CCCCC(C#N)(Cn1cncn1)c1ccc(Cl)cc1 (stereo not drawn) [Myclobutanil, 2-p-chlorophenyl-2-(1H-1,2,4-triazol-1-ylmethyl)hexanenitrile, reference compound]
LEFCH; [1]
  Visual Weed Control (%) - 21 DAA LEFCH Obs: 0%
IPOHE; [1]
  Visual Weed Control (%) - 21 DAA IPOHE Obs: 10%

## COc1c(Cl)ccc(-c2nc(C(=O)O)c(Cl)c(N)c2F)c1F [Compound A Acid, 4-amino-3-chloro-5-fluoro-6-(4-chloro-2-fluoro-3-methoxy-phenyl)pyridine-2-carboxylic acid]
CYPRO; Compound A Acid 10.6 g ae/ha
  Visual Weed Control (%) - 22 DAA CYPRO Obs: 0%
CYPRO; Compound A Acid 21.2 g ae/ha
  Visual Weed Control (%) - 22 DAA CYPRO Obs: 25%
CYPRO; Compound A Acid 42.4 g ae/ha
  Visual Weed Control (%) - 22 DAA CYPRO Obs: 95%

## CCCC1COC(Cn2cncn2)(c2ccc(Cl)cc2Cl)O1 (stereo not drawn) [Propiconazole, 1-[2-(2,4-dichlorophenyl)-4-propyl-1,3-dioxolan-2-ylmethyl]-1H-1,2,4-triazole, reference compound]
DIGSA; r9-11 acid 5.3/10.6/21.2 g ae/ha alone, r12 propiconazole 190 g ai/ha alone, r13-15 acid 5.3/10.6/21.2 + 190
  Visual Weed Control (%) - 21 DAA DIGSA Obs: 0%

## COC(=O)Nc1nc2ccccc2[nH]1 [Carbendazim, methyl benzimidazol-2-ylcarbamate, reference compound]
ECHCO; r12-13 carbendazim 125/250 g ai/ha alone, r14-19 ester 8/16/32 at each of 125, 250
  Visual Weed Control (%) - 19 DAA ECHCO Obs: 0%

## CC(C)Oc1cccc(NC(=O)c2ccccc2C(F)(F)F)c1 [Flutolanil, α,α,α-trifluoro-3′-isopropoxy-o-toluanilide, reference compound]
ECHCO; r12-13 flutolanil 280/560 g ai/ha alone, r14-19 ester 8/16/32 at each of 280, 560
  Visual Weed Control (%) - 19 DAA ECHCO Obs: 0%
LEFCH; 19 DAA, r9-11 ester 8/16/32 g ae/ha alone, r12-13 flutolanil 280/560 g ai/ha alone, r14-19 ester 8/16/32 at each of 280, 560
  Visual Weed Control (%) - 19 DAA LEFCH Obs: 0%

## manganese ethylenebis(dithiocarbamate) (polymeric) complex with zinc salt [Mancozeb, reference compound]
LEFCH; r10-11 ester 16/32 g ae/ha alone, r12 mancozeb 840 g ai/ha alone, r13-14 ester 16/32 + 840
  Visual Weed Control (%) - 21 DAA LEFCH Obs: 0%
IPOHE; r20-22 ester 8/16/32 g ae/ha alone, r23 mancozeb 1680 g ai/ha alone, r24-26 ester 8/16/32 + 1680
  Visual Weed Control (%) - 21 DAA IPOHE Obs: 0%

## CO/C=C(/C(=O)OC)c1ccccc1Oc1cc(Oc2ccccc2C#N)ncn1 [Azoxystrobin, methyl (2E)-2-{2-[6-(2-cyanophenoxy)pyrimidin-4-yloxy]phenyl}3-methoxyacrylate, reference compound]
BRAPP
  Visual Weed Control (%) - 22 DAA BRAPP Obs: 0%
CYPIR
  Visual Weed Control (%) - 22 DAA CYPIR Obs: 0%
DIGSA; [2]
  Visual Weed Control (%) - 21 DAA DIGSA Obs: 0%
DIGSA; [3]
  Visual Weed Control (%) - 21 DAA DIGSA Obs: 0%
IPOHE; [2]
  Visual Weed Control (%) - 21 DAA IPOHE Obs: 0%
IPOHE; [3]
  Visual Weed Control (%) - 21 DAA IPOHE Obs: 0%

## O=C1OCc2c(Cl)c(Cl)c(Cl)c(Cl)c21 [Phthalide, 4,5,6,7-tetrachlorophthalide]
ECHCG
  Visual Weed Control (%) - 21 DAA ECHCG Obs: 0%
